Consider nine compounds from patent US6476007B2, “Isoform specific inhibition for treatment of pain and reduction of anesthetic threshold” (The Johns Hopkins University, priority 1999, dated 2002).

Data set [1] is described as follows: Subjective observation of animal behavior after intrathecal administration. The following applies: period of 2 h, compared with control animals.
The subject of data set [2] is tail-flick latency. Description: Radiant heat tail-flick test, agents given alone intrathecally. The class given is in vivo, rat. The settings on record: for maximal decrease in the tail-flick latency: compared to saline-treated group. (In hot-plate and tail-flick tests a longer latency is read as antinociception.)
Data set [3] relates to formalin-induced c-fos expression in the spinal cord. The following applies: for number of Fos-positive neurons in laminae I-II, III-IV and V-VI: vs water pretreated rats; for mean reduction in number of fos-positive neurons per section: vs control group, p<0.05. The protocol: For Fos immunohistochemistry, rats were perfused one hour after the behavioral test was done as described below. The lumbar spinal cord was removed and cut into 30 μm transverse sections. Sections were processed following the above-mentioned procedures except that the primary antibody was substituted with polyclonal rabbit anti-Fos antibody (1:4,000, Santa Cruz Biotechnology, Inc., CA).
(§1) The drug was dissolved in distilled water before administration. The animals were randomly assigned into four groups as follows: distilled water (control) (n=12); 10 μg of Rp-8-p-CPT-cGMPS (n=6); 20 μg of Rp-8-p-CPT-cGMPS (n=6); 30 μg of Rp-8-p-CPTc-GMPS (n=6). The drug solution was injected intrathecally in a volume of 10 μl, followed by an injection of 10 μl of distilled water to flush the catheter. Fifteen minutes later, formalin (100 μl, 4%) was injected into a hind paw of the rat. In addition, four rats were alone treated intrathecally with Rp-8-p-CPT-cGMPS (30 μg) and another four rats were normal without any treatment.

Data set [4] deals with NMDA-induced facilitation of the tail-flick reflex. Kind of data set: NMDA-induced facilitation of the tail-flick reflex. The class given is in vivo, rat.
For data set [5], the system named is formalin-induced pain behavior. The settings on record: for reduction of the number of flinches and shakes evoked by formalin: 30 μg intrathecal. The protocol: The rats were implanted with an intrathecal catheter under pentobarbital anesthesia. A polyethylene (PE-10) tube was inserted into the subarachnoid space at the rostral level of the spinal cord lumbar enlargement through an incision at the atlanto-occipital membrane according to the method of Yaksh and Rudy (27). The animals were allowed to recover for 7 to 10 days before being used experimentally. Rats showing neurological deficits postoperatively were discarded.
as §1
Immediately following the formalin injection, each individual rat was placed in a transparent cage for observation of the formalin-injected paw. The pain-related behaviors, flinches and shakes, were assessed for the next 60 min by an experimenter who was unaware of the group assignment. The observational session was divided into two periods: a phasic period (0-10 min) and a tonic period (10-60 min). The mean number of flinches and shakes for each period of each treatment group was determined

For data set [6], the system named is NOC-12-induced decrease in the tail-flick latency. The following applies: for effect on NOC-12-induced decrease in the tail-flick latency: tested 30 and 60 min, p<0.01. The procedure:
Rats were anesthetized by intraperitoneal injection of pentobarbital sodium (45 mg/kg). Chronic intrathecal catheters were inserted by passing a polyethylene-10 (PE-10) catheter through an incision in the atlanto-occipital membrane to a position 8 cm caudal to the cistema at the level of the lumbar subarachinoid space. The animals were allowed to recover for a week before experiments were initiated. Rats showing neurologic deficits post-operatively were removed from the study.
Nociception was evaluated by the radiant heat tail-flick test with no anesthesia. Each rat was placed in an Animal Holder (IITC Life Science, CA, USA), 690 cm^3 in capacity with rubber stoppers in both ends with a rostral inlet and a caudal outlet. The tail of the rat protruded through the caudal hole. The tail-flick apparatus (Model 33B Tail Flick Analgesy Meter, IITC Life Science, CA, USA) generated a beam of radiant heat which was focused on the underside of the tail, 5 cm from the tip. […] Nociception was assessed by the prolongation of the time required to induce tail-flick after applying radiant heat to the skin of the tail. The latency of reflexive removal of the tail from the heat was measured automatically to the nearest 0.01 s. Tail-flick latency was measured six times and the basal latency was defined as the mean of the last five times. The tail-flick data are expressed as percentage change calculated by the formula: (trial latency—baseline latency)/(baseline latency)×100%.
The drug solution was injected intrathecally in a volume of 10 μl, followed by an injection of 10 μl of saline to flush the catheter.

The subject of data set [7] is PKGIα expression in the spinal cord. Description: Western blot of PKGIα in lumbar enlargement segments 96 h after formalin injection. The class given is in vivo, rat. The settings on record: 96 h formalin-treated rats, not significant (p>0.05). The procedure:
Thirty five rats were sacrificed by decapitation at 0 h (normal control), 24 h, 48 h and 96 h after injection of saline (100 μl) or formalin (100 μl, 4%) into a hind paw. Lumbar enlargement segments of the spinal cord were dissected, quickly frozen in liquid nitrogen and stored at −80° C. for later use. Frozen tissues were homogenized in the homogenization buffer (50 mM Tris-HCl, 0.1 mM EDTA, 0.1mM EGTA, 1 mM phenylmethylsulfonyl fluoride, 1 μM leupeptin, 2 μM pepstatin A, 0.1% 2-mercaptoethanol). The crude homogenate was centrifuged at 4° C. for 15 min at 3,000×g. The supernatants (100 μg) were heated for 5 min at 90° C. and then loaded onto 4% stacking/7.5% separating SDS-polyacrylamide gels. The proteins were electrophoretically transferred onto nitrocellulose membrane and blocked with 2% non-fat dry milk and subsequently incubated for 1 h with polyclonal rabbit anti-PKGIα antibody (1:500) and with monoclonal mouse anti-endothelium NOS (eNOS) antibody (1:500) (Transduction Labs). Normal lung was used as a positive control. Specific proteins were detected using horseradish peroxidase-conjugated anti-rabbit or anti-mouse secondary antibody and visualized using chemiluminescence reagents provided with the ECL kit (Amersham Life Sciences Inc, II) and exposure to film. The intensity of blots was quantified with densitometry (Personal Densitometer/IMAGEQUANT; Molecular Dynamics).
In some experiments, rats were injected intraperitoneally (i.p.) with an NMDA receptor antagonist, MK-801 (RBI, MA), a selective neuronal NOS inhibitor (nNOS), 7-Nitroindazole (7-NI, Alexis Biochemicals, CA) and a selective sGC inhibitor, 1H-[1,2,4]oxadiazolo[4,3-a]quinoxalin-1-one (ODQ, Alexis Biochemicals, CA), each day for 4 days (96 h). The doses of MK-801, 7-NI and ODQ used in the present study were determined regarding to the previous studies (29-31). The experiments were divided into five groups. Group 1 (n=4) as control: i.p. injection of saline (0.9%, 2 ml) or peanut oil (2 ml) 30 min prior to the subcutaneous injection of saline (0.9%, 100 μl). […]

Data set [8] concerns mechanical allodynia induced by capsaicin. The settings on record: Sluka and Willis (1997); cited from earlier work.
Data set [9] relates to NMDA-produced facilitation of the tail flick reflex. The settings on record: pretreatment, spinal cord; Meller et al., 1992a; cited from earlier work.
Setting [10] is: 100 mg/kg i.p. in peanut oil each day for 4 days.

Molecules are shown by their SMILES. Structures can show the parent of a compound that is named as a salt. Where two headings read alike, the source gives them in different places.

Consider `CCNCCN(CC)N(O)N=O` [NOC-12, N-ethyl-2-(1-ethyl-2-hydroxy-2-nitrosohydrazino)ethanamine], for which, in [1], the “changes in animal behavior on subjective observation” value (from here on “changes in animal behavior”) was “no obvious changes in animal behavior”. Further, the “maximal decrease in the tail-flick latency” value in data set [2] (10 μg intrathecal) is 5.4%; in data set [2] (20 μg intrathecal, p<0.01), 18.5%; in [2] (30 μg intrathecal, p<0.01), 24.9%. The “tail flick latency after maximal reduction” value in data set [2] (30 μg intrathecal, baseline 6.53±0.28 seconds) is 4.65 ± 0.32 s. Besides, in data set [2] (120 min after intrathecal injection), the “hyperalgesia 120 min after intrathecal injection” value was “no longer observed”. In addition, in [2] (intrathecal, decrease seen from 15 to 90 min), the “time of maximum effect on tail-flick latency” value is on record as 60 min.

Take `CCN(CC)CC.Nc1nc2c(nc(Sc3ccc(Cl)cc3)n2[C@@H]2O[C@@H]3COP(O)(=S)O[C@H]3[C@H]2O)c(=O)[nH]1` (stereo partly drawn) [Rp-8-p-CPT-cGMPS, Rp-8-[(4-Chlorophenyl)thio]-cGMPS triethylamine]: the “number of Fos-positive neurons in laminae I-II, III-IV and V-VI” value in data set [3] (20 μg intrathecal) and in [3] (30 μg intrathecal) was “significantly decreased” in each case. The “mean reduction in number of fos-positive neurons per section” value amounted to 51% in data set [3] (30 μg intrathecal, neck of dorsal horn); 30% in [3] (30 μg intrathecal, nucleus proprius); 29% in [3] (30 μg intrathecal, superficial laminae). Moreover, the “number of Fos-positive neurons in laminae VII-X” value in [3] (intrathecal 10, 20 and 30 μg, vs water) is “no significant reduction”. For the same compound, in data set [3] (treatment with the agent only (30 μg intrathecal), no formalin), the “Fos-positive neurons in the spinal cord” value is “no Fos-positive neurons”. Also, the “changes in animal behavior” value in data set [1] is “no obvious changes in animal behavior”. In addition, the “effect on the baseline tail-flick latency” value in [2] (7.5, 15 and 30 μg given alone, 15 to 120 min after administration, p>0.05) was “no significant effect”. The “effect on the NMDA-evoked facilitation of the tail-flick reflex” value in data set [4] (7.5 μg intrathecal, p>0.05) was “failed to produce significant effect”. In addition, the “suppression of the NMDA-induced decrease of the tail-flick latency” value in data set [4] (15 μg intrathecal prior administration, p<0.01) was 13.3%; in [4] (30 μg intrathecal prior administration, p<0.01), 20.7%. In [5] (10 μg intrathecal, phasic or tonic period), the “effect on the formalin response” value is recorded as “did not influence”. For the same compound, the “effect on the formalin-induced behavior” value in [5] (20 μg intrathecal, phasic period) is on record as “no effect”. For the same compound, in [5] (20 μg intrathecal, tonic period, p<0.01), the “suppression of the formalin-induced behavior” value is listed as 25%. Moreover, the “reduction of the number of flinches and shakes evoked by formalin” value was 64% in data set [5] (phasic period (0-10 min), p<0.01) and 66% in [5] (tonic period (10-60 min), p<0.01). In addition, the “effect on the hyperalgesia induced by NOC-12” value in data set [6] (7.5 μg intrathecal, 30 μg NOC-12, p>0.05) is “did not influence”. For the same compound, the “effect on NOC-12-induced decrease in the tail-flick latency” value in data set [6] (15 μg intrathecal 10 min prior to 30 μg NOC-12) and in [6] (30 μg intrathecal 10 min prior to 30 μg NOC-12) was “significantly blocked” throughout.

As to `C[C@]12N[C@H](Cc3ccccc31)c1ccccc12` [MK-801, dizocilpine maleate], the “PKGIα protein level relative to group 1 (saline-injected control)” value in [7] (2 mg/kg i.p. each day for 4 days) stood at 1.13 fold. Besides, in [4] (prior intrathecal treatment, p<0.01), the “effect on NMDA-produced facilitation of the tail-flick reflex” value is on record as “completely abolished”.

For the compound `CN[C@H](CC(=O)O)C(=O)O` [NMDA, N-methyl-D-aspartate], in data set [1], the “changes in animal behavior” value was “caudally directed biting and scratching behaviors”. Moreover, the “tail-flick latency after intrathecal administration” value in data set [2] (intrathecal NMDA, baseline 6.58±0.57 seconds, p<0.01) was determined as 4.88 ± 0.41 s.

On to `O=[N+]([O-])c1cccc2cn[nH]c12` [7-NI, 7-Nitroindazole], for which, in data set [7] (setting [10]), the “PKGIα protein level relative to group 1 (saline-injected control)” value is on record as 1.17 fold.

For the compound `O=c1onc2cnc3ccccc3n12` [ODQ, 1H-[1,2,4]oxadiazolo[4,3-a]quinoxalin-1-one], in data set [7] (setting [10]), the “PKGIα protein level relative to group 1 (saline-injected control)” value came out at 1.14 fold.

For `COC(=O)[C@@]1(OC)C[C@H]2O[C@]1(C)n1c3ccccc3c3c4c(c5c6ccccc6n2c5c31)C(=O)N(C)C4` [KT5823], the “effect on mechanical allodynia induced by capsaicin” value in data set [8] is reported as “reversed”.

As to `COC(=O)[C@@H](N)CCCNC(=N)N[N+](=O)[O-]` [N^G-nitro-L-arginine methyl ester], the “effect on NMDA-produced facilitation of the tail flick reflex” value in data set [9] is recorded as “completely abolished”.

Take `CN(C)c1ccc2nc3ccc(=[N+](C)C)cc-3sc2c1` [methylene blue]: the “effect on NMDA-produced facilitation of the tail flick reflex” value in [9] is recorded as “completely abolished”.
